Reference: patent publication US20240082406A1, “BENZOHETEROCYCLE SUBSTITUTED TETRAHYDROISOQUINOLINE COMPOUND” (SHANGHAI JEMINCARE PHARMACEUTICAL CO., LTD, priority 2020, published 2024)

Legend:
Sprague-Dawley rats [1] = assay: Inhibition of phosphate and sodium absorption in the intestine of rats by a single dose; type: in vivo, rat; settings: normal rats
Protocol: Compound D1-P1-S was evaluated by measuring urinary phosphorus, urinary sodium concentration and fecal form.
(§1) Six-week-old Sprague-Dawley rats were purchased from Beijing Vital River Laboratory Animal Technology Co., Ltd. Two animals per cage were placed in SPF class animal rooms for acclimatization for about a week. Throughout the study period, animals were fed feed and water freely and the light cycle was 12 h light/12 h dark. Animal groups: vehicle group, n=5; tenapanor 0.3 mg/kg group, n=5; D1-P1-S 0.03 mg/kg group, n=5; D1-P1-S 0.1 mg/kg, n=5; D1-P1-S 0.3 mg/kg, n=5; D1-P1-S1.0 mg/kg, n=5.
On the day of the experiment, after 8 hours of fasting, the animals were administered the test compound or solvent (0.5% Tween 80+99.5% distilled water) by gavage. The animals were then transferred into metabolic cages for single-cage feeding, and the feed was restored. After 16 hours of administration, urine samples were collected and food consumption was recorded, and the fecal form in the collection funnel was evaluated by two independent observations. Standard for fecal form score: 1, normal pellets; 2, slightly soft feces (pellets adhered to the side wall of the collector due to moisture); 3, soft feces (loss the normal shape of the pellets); 4, loose and amorphous (completely loss shape, with blot pattern); 5, diarrhea (watery feces). Fecal form score (FFS) in rats was determined by averaging two independent observation scores for all rats within the same group (n=5); the vehicle group mean was 1.
The urine was centrifuged at 3220 g for 5 minutes at 4° C., and the urinary phosphorus concentration (phosphomolybdic acid UV endpoint colorimetric method) and urinary sodium concentration (ion selective electrode method) were measured.
(§2) Results were indicated as mean±standard error (Means±SEM). Urinary phosphorus excretion amount (or urinary sodium excretion amount) in rats was standardized corrected against respective dietary phosphorus (or sodium) intake, and the formula was: standardized correction value of urinary phosphorus excretion amount (indicated as nP)=urinary phosphorus excretion amount÷dietary phosphorus intake amount; standardized correction value of urinary sodium excretion amount (indicated as nNa)=urinary sodium excretion amount÷dietary sodium intake amount; fecal form score was analyzed by monofactorial variance, and verified by non-parametric test. *, p<0.05; **, p<0.01; * p<0.001; ****, p<0.0001.

Sprague-Dawley rats [2] = assay: Effects of multiple administrations on serum phosphorus concentration in rats; type: in vivo, rat; settings: for 24 h nP, course: after 15 days
Protocol: Compound D1-P1-S was evaluated by measuring serum phosphorus concentration, urinary phosphorus, urinary sodium concentration and fecal form in rats.
as §1, with “Tenapanor 0.05” for “tenapanor 0.3 mg/kg group, n=5; D1-P1-S 0.03 mg/kg group, n=5; D1-P1-S 0.1”, “0.01” for “0.3”, “D1-P1-S 0.05 mg/kg, n=5; D1-P1-S 0.5 mg/kg, n=5; D1-P1-S 1.0” for “D1-P1-S1.0”
After the start of the experiment, the feeding rhythm of the rats was adjusted to diurnal feeding by fasting overnight for 16 hours and recovering feed for 8 hours during the day. After the administration started, the test compound or the solvent (0.5% Tween 80+99.5% distilled water) was gavaged twice a day during the feeding period, with an interval of 4 hours, for 14 consecutive days. Animal body weight and food consumption were measured every day, serum phosphorus concentration (including baseline value before administration), 24-hour urinary phosphorus excretion amount, and 24-hour urinary sodium excretion amount were measured 1-2 times a week, and feces form in the collection funnel was scored (through two independent observations to assess fecal form). Standard for fecal form score: 1, normal pellets; 2, slightly soft feces (pellets adhered to the side wall of the collector due to moisture); 3, soft feces (loss the normal shape of the pellets); 4, loose and amorphous (completely loss shape, with blot pattern); 5, diarrhea (watery feces). Fecal form score (FFS) in rats was determined by averaging two independent observation scores for all rats within the same group (n=5); the vehicle group mean was 1.
After standing at room temperature for 2 hours, the blood was centrifuged at 4500 g for 10 minutes at 4° C.; and the urine was centrifuged at 3220 g for 5 minutes at 4° C., and the serum phosphorus concentration and urinary phosphorus concentration (phosphomolybdic acid UV endpoint colorimetric method), urinary sodium concentration (indirect ion electrode method) were measured.
as §2, with “error (Means±SEM), n=5 animals/group.” for “error (Means±SEM).”, “by two-way” for “by monofactorial”, “p<0.01; ***,” for “p<0.01; *”, “****, p<[…].” for “****, p<0.0001.”

[3] = 1 day of treatment at 0.01, 0.05, 0.5 and 1.0 mg/kg

- water content in rat feces (fecal form) (Sprague-Dawley rats [1]; single gavage, with increasing dose): tendency of increasing
- fecal form score vs solvent control (Sprague-Dawley rats [2]; 1 day of treatment at 0.05, 0.5 and 1.0 mg/kg): significantly increased
- loose feces (Sprague-Dawley rats [2]; high doses of 0.5 mg/kg and 1.0 mg/kg, observed less often as administration continued): more severe loose feces
- loose feces (Sprague-Dawley rats [2]; low dose of 0.01 mg/kg): no rats had loose feces
Structure (SMILES): CN1Cc2c(Cl)cc(Cl)cc2C(c2ccc3cn(CCOCCOCCNC(=O)NCCCCNC(=O)NCCOCCOCCn4cc5ccc([C@@H]6CN(C)Cc7c(Cl)cc(Cl)cc76)cc5n4)nc3c2)C1 (stereo partly drawn) [Embodiment D1-P1-S]
- urinary phosphorus excretion amount, dose dependence (Sprague-Dawley rats [1]; single gavage 0.03-1.0 mg/kg, urine collected after 16 hours): dose-effect relationship
- urinary sodium excretion amount (Sprague-Dawley rats [1]; single gavage, 16 h urine): significantly reduce
- urinary phosphorus excretion amount (Sprague-Dawley rats [1]; single gavage, doses of 0.3 mg/kg and 1.0 mg/kg, 16 h urine): significantly reduce
- effect in reducing urinary phosphorus excretion amount compared with Tenapanor (Sprague-Dawley rats [1]; single gavage, same dose (0.3 mg/kg)): better than Tenapanor
- 24 h nNa (urinary sodium excretion / dietary sodium intake) vs solvent group (Sprague-Dawley rats [2]; [3]): decreased significantly
- 24 h nP (urinary phosphorus excretion / dietary phosphorus intake) vs solvent group (Sprague-Dawley rats [2]; [3]): tended to decrease
- 24 h nP vs solvent group (Sprague-Dawley rats [2]; 1 day of treatment, 1.0 mg/kg): significantly decreased
- 24 h nP vs solvent group (Sprague-Dawley rats [2]; 10 days of treatment at 0.01, 0.05, 0.5 and 1.0 mg/kg): decreased significantly
- 24 h nNa (Sprague-Dawley rats [2]; after 10 days of treatment, 0.01 mg/kg and 0.05 mg/kg): increasing trend
- 24 h nP, course (Sprague-Dawley rats [2]): tended to be stable
- 24 h nP, course (Sprague-Dawley rats [2]; low dose group (0.01 mg/kg)): tended to increase
- serum phosphorus, course after 10 days (Sprague-Dawley rats [2]; all dose groups except the highest dose group of 1.0 mg/kg): tended to be stable
- serum phosphorus concentration vs solvent control (Sprague-Dawley rats [2]; gavage twice a day, 0.5 mg/kg or 1.0 mg/kg for 4 days): significantly decreased
- serum phosphorus concentration vs solvent control (Sprague-Dawley rats [2]; twice a day, 10 days of treatment at 0.01, 0.05, 0.5, 1.0 mg/kg): decreased significantly
